From PMC9959553, “Promising Antifungal Molecules against Mucormycosis Agents Identified from Pandemic Response Box®: In Vitro and In Silico Analyses” (Journal of Fungi, 2023)

These molecules were tested on R. oryzae UCP1295 (assay: Screening of the Pandemic Response Box library at 5 µM). Conditions: 48 h, Table S1, mean of the four values.
Assay type: cell-based, Rhizopus oryzae
Description: Rhizopus oryzae UCP is the most prevalent Mucorales species in human infections and was used as a reference strain to screen the Pandemic Response Box® library. Screening was performed according to Rollin-Pinheiro and colleagues. Each compound was diluted in RPMI 1640 medium (Sigma Chemical Co., St. Louis, MO, USA), supplemented with 2% glucose and buffered with 3-(N-morpholino) propanesulfonic acid (MOPS) (Sigma Chemical Co., St. Louis, MO, USA) (0.165 mol/L, pH 7.2, from here on referred to as ‘supplemented RPMI’) to reach 5 μM in 96-well microtiter plates. Posaconazole (5 μM) and supplemented RPMI containing 1% DMSO were used as controls (both from Sigma Chemical Co., St. Louis, MO, USA). Conidia (2 × 10^5/mL) were added and incubated for 48 h at 37 °C in a 5% CO2 atmosphere. […] An inhibition of at least 60% was defined as the cut-off to select the promising drugs with antifungal activity against the Rhizopus species.

First: CCN(CC)CCCC(C)Nc1ccnc2cc(Cl)ccc12 (stereo not drawn) [MMV000008]
Second: CCN(CC)CCn1c(=N)n(CC(O)COc2ccc(Cl)cc2Cl)c2ccccc21 (stereo not drawn) [MMV000725]
The “% of growth inhibition, Mean” value of the first is higher: -3.5% for the first, -27.5% for the second.

First: COc1cc(Cc2cnc(N)nc2N)cc(OC)c1OC [MMV000028]
Second: COc1ccc2c(c1OC)C(=O)OC2C1c2c(cc3c(c2OC)OCO3)CCN1C (stereo not drawn) [MMV002780]
The “% of growth inhibition, Mean” value of the first is higher: -4.5% for the first, -7.9% for the second.

Going from `COc1cc(C)c2c(Oc3cccc(C(F)(F)F)c3)c(OC)cc(NC(C)CCCN)c2n1.O=C(O)CCC(=O)O` (stereo not drawn) [MMV000043] to `O=C(O)CSc1cc(NS(=O)(=O)c2cccc3cccnc23)c2ccccc2c1O` [MMV218827], the “% of growth inhibition, Mean” value rises from -36.7% to -3.2%.

First: CCC[C@@H]1C[C@@H](C(=O)N[C@@H]([C@H]2O[C@H](SC)[C@H](O)[C@@H](O)[C@H]2O)[C@H](C)Cl)N(C)C1.Cl [MMV000051]
Second: NC[C@H]1O[C@H](O[C@H]2[C@H](O)[C@@H](O[C@H]3O[C@H](CO)[C@@H](O)[C@H](N)[C@H]3O)[C@H](N)C[C@@H]2N)[C@H](N)C[C@@H]1O [MMV002459]
The “% of growth inhibition, Mean” value of the first is lower: -29.6% for the first, -14.1% for the second.

First: CONC(=N)c1ccc(-c2ccc(-c3ccc(C(=N)NOC)cc3)o2)cc1 [MMV000059]
Second: Cc1onc(-c2ccccc2)c1-c1ccc(S(N)(=O)=O)cc1 [MMV002260]
The “% of growth inhibition, Mean” value of the first is lower: -38.5% for the first, -15.5% for the second.

Going from `O=C(c1ccccc1)N1CCN(c2ccccc2NC(=O)C(Cl)(Cl)Cl)CC1` [MMV001014] to `C[N+]1(C)CCCC(OC(=O)C(O)(c2ccccc2)c2ccccc2)C1` (stereo not drawn) [MMV002676], the “% of growth inhibition, Mean” value falls from -10.6% to -16.3%.

Going from `Cc1c(OCC(F)(F)F)ccnc1C[S+]([O-])c1nc2ccccc2[nH]1` (stereo not drawn) [MMV001438] to `COC(=O)Nc1nc2ccc([S+]([O-])c3ccccc3)cc2[nH]1` (stereo not drawn) [MMV002565], the “% of growth inhibition, Mean” value falls from -13.2% to -39.5%.

First: CCCCc1ccc(C(=O)O)nc1 [MMV001726]
Second: CCOc1ccc(C(=O)NCCc2ccccc2)cc1 [MMV124656]
The “% of growth inhibition, Mean” value of the first is higher: -15.9% for the first, -37.8% for the second.

Compared with `Nc1nc(O)c2ncn(COC(CO)CO)c2n1` [MMV001761], `Nc1nc2c(ncn2COCCO)c(=O)[nH]1` [MMV001961] is higher in “% of growth inhibition, Mean” value: -10.5% for the first, -10.2% for the second.

First: CC1=C(/C=C/C(C)=C/C=C/C(C)=C/C(=O)Nc2ccc(O)cc2)C(C)(C)CCC1 [MMV001793]
Second: Cc1oncc1C(=O)Nc1ccc(C(F)(F)F)cc1 [MMV003291]
The “% of growth inhibition, Mean” value of the first is lower: -8.1% for the first, 4.9% for the second.

Going from `Clc1ccc(Cn2c(CN3CCCC3)nc3ccccc32)cc1` [MMV002015] to `Nc1c(C(=O)NCc2ccco2)c2nc3ccccc3nc2n1CCN1CCCCC1` [MMV099714], the “% of growth inhibition, Mean” value rises from -4.7% to -2.7%.

Compared with `NNC(=O)c1ccncc1` [MMV002169], `NC(=O)c1cnccn1` [MMV003249] is higher in “% of growth inhibition, Mean” value: -5.4% for the first, -5.2% for the second.

Compared with `O=C(O)CCNC(=O)c1ccccc1` [MMV002224], `O=C(O)c1cc(-c2ccccc2)nc2ccccc12` [MMV018362] is lower in “% of growth inhibition, Mean” value: -6.2% for the first, -11.4% for the second.

Going from `Cc1ncc([N+](=O)[O-])n1CC(C)O` (stereo not drawn) [MMV002287] to `CC[C@@H]1C(=O)OC[C@@H]1Cc1cncn1C.Cl` [MMV002516], the “% of growth inhibition, Mean” value rises from -34.1% to -16.1%.

Going from `OC(Cn1cncn1)(Cn1cncn1)c1ccc(F)cc1F` [MMV002337] to `CC(C)Nc1ncnc2c1cnn2-c1ccc(Cl)cc1` [MMV108465], the “% of growth inhibition, Mean” value rises from -36.5% to -32.3%.

First: CCn1cc(C(=O)O)c(=O)c2cc(F)c(N3CCNC(C)C3)c(F)c21.Cl (stereo not drawn) [MMV002350]
Second: CC1CN(c2ncnc3c2c(-c2ccccc2)cn3-c2ccc(F)cc2)CC(C)O1 (stereo not drawn) [MMV093250]
The “% of growth inhibition, Mean” value of the first is higher: -4.3% for the first, -16.0% for the second.

Compared with `C[C@@H]1O[C@@H]1P(=O)(O)O` [MMV002354], `Cc1onc(-c2ccccc2Cl)c1C(=O)N[C@@H]1C(=O)N2[C@@H]1SC(C)(C)[C@@H]2C(=O)O` [MMV002740] is lower in “% of growth inhibition, Mean” value: -22.5% for the first, -27.0% for the second.

Going from `CSc1ccc2c(c1)C(N1CCN(C)CC1)Cc1ccccc1S2` (stereo not drawn) [MMV002505] to `Cc1nc(Nc2ccc(F)cc2)nc(N2CCc3ccccc3C2C)c1C` (stereo not drawn) [MMV030787], the “% of growth inhibition, Mean” value falls from 8.0% to -5.0%.

Compared with `CO/N=C(\C(=O)N[C@@H]1C(=O)N2C(C(=O)OCOC(=O)C(C)(C)C)=C(/C=C\c3scnc3C)CS[C@H]12)c1csc(N)n1` [MMV002560], `O=C(CC1Sc2ncnn2C1=O)Nc1ccc(Br)cc1` (stereo not drawn) [MMV214956] is lower in “% of growth inhibition, Mean” value: -6.4% for the first, -17.9% for the second.

Going from `O=C1CCC(N2C(=O)c3ccccc3C2=O)C(=O)N1` (stereo not drawn) [MMV002612] to `COC(=O)Nc1nc2cc(Sc3ccccc3)ccc2[nH]1` [MMV003143], the “% of growth inhibition, Mean” value rises from -21.8% to -14.1%.

Going from `NCc1ccc(S(N)(=O)=O)cc1` [MMV002665] to `COc1cc(NS(=O)(=O)c2ccc(C)cc2)c2ncccc2c1` [MMV098836], the “% of growth inhibition, Mean” value rises from -2.2% to 48.1%.

First: Cc1cc(C2CCCCC2)n(O)c(=O)c1 [MMV002731]
Second: COc1ccc(C2CNC(=O)C2)cc1OC1CCCC1 (stereo not drawn) [MMV003738]
The “% of growth inhibition, Mean” value of the first is lower: -13.0% for the first, -1.4% for the second.

Going from `C[C@H]1CC[C@]2(NC1)O[C@H]1C[C@H]3[C@@H]4CC[C@H]5C[C@@H](O)CC[C@]5(C)[C@H]4CC[C@]3(C)[C@H]1[C@@H]2C.Cl` [MMV003069] to `CC#C[C@]1(O)CC[C@H]2[C@@H]3CCC4=CC(=O)CCC4=C3[C@@H](c3ccc(N(C)C)cc3)C[C@@]21C` [MMV003297], the “% of growth inhibition, Mean” value rises from -12.1% to -3.7%.

Going from `CC[C@H]1OC(=O)[C@H](C)[C@@H](O[C@H]2C[C@@](C)(OC)[C@@H](O)[C@H](C)O2)[C@H](C)[C@@H](O[C@@H]2O[C@H](C)C[C@H](N(C)C)[C@H]2O)[C@](C)(O)C[C@@H](C)C(=O)[C@H](C)[C@@H](O)[C@]1(C)O` [MMV003137] to `COc1cc2c(O)c3c(c(-c4ccc5c(c4)OCO5)c2cc1OC)C(=O)OC3` [MMV102270], the “% of growth inhibition, Mean” value falls from -11.8% to -33.2%.

Going from `CC[C@H](CO)Nc1nc(NCc2ccccc2)c2ncn(C(C)C)c2n1` [MMV003820] to `Cc1[nH]c2ccccc2c1CCNCc1ccc(/C=C/C(=O)NO)cc1` [MMV010036], the “% of growth inhibition, Mean” value rises from -13.4% to 1.8%.

Going from `Nc1nc(=O)[nH]cc1F` [MMV004508] to `Nc1nnc(-c2ccc(Cl)cc2)s1` [MMV046261], the “% of growth inhibition, Mean” value rises from -32.5% to -8.7%.

Going from `Cc1ccc(NC(=O)c2ccc(CN3CCN(C)CC3)cc2)cc1Nc1nccc(-c2cccnc2)n1` [MMV009948] to `CN1CCN(c2ccc3[nH]c(-c4ccc5[nH]c(-c6ccc(O)cc6)nc5c4)nc3c2)CC1` [MMV020752], the “% of growth inhibition, Mean” value falls from -3.0% to -8.9%.

Compared with `COc1ccc2nc(-c3ccccc3)cc(O)c2c1` [MMV011565], `Clc1cccc(-c2nnc(-c3ccccc3)o2)c1` [MMV141011] is higher in “% of growth inhibition, Mean” value: -42.1% for the first, -16.6% for the second.

First: Nc1nc(N)c2c(Sc3ccccc3)cccc2n1 [MMV021759]
Second: O=C(Nc1nnc(-c2ccc(Cl)cc2)o1)c1nc2ccccc2s1 [MMV102833]
The “% of growth inhibition, Mean” value of the first is lower: -3.3% for the first, 1.7% for the second.

Compared with `NC(=O)c1c(N)sc2c1CCCCC2` [MMV056052], `NC1C2CC3CC(C2)CC1C3` (stereo not drawn) [MMV180402] is higher in “% of growth inhibition, Mean” value: -8.7% for the first, 3.0% for the second.
